From patent US8093028B2, “Engineered glycosyltransferases with expanded substrate specificity” (Wisconsin Alumni Research Foundation, priority 2007, dated 2012) come the findings set out here.

For this assay, the target named is T1, OleD P67T/S132F/A242V (Streptomyces antibioticus, UniProt Q53685, A242V/P67T/S132F).
T1 construct: made in house; host or cells: E. coli (site-directed mutant of pET28/OleD)
Type of assay: biochemical. The protocol: Kinetic parameters kcat and Km were determined with both 4-Me-umb FIG. 1: 4 and UPDG as variable substrates using assay conditions as described above. […] Each experiment was performed in triplicate. Initial velocities were fitted to the Michaelis-Menten equation using Sigma Plot.
Enzyme assays were carried out in a total volume of 500 μl 50 mM Tris-HCl (pH 8.0) containing 5 mM MgCl2, and 50 μg pure enzyme. Kinetic parameters kcat and Km were determined with both 4-Me-umb FIG. 1: 4 and UPDG (FIG. 3: 2) as variable substrates. […] Each experiment was performed in triplicate. Initial velocities were fitted to the Michaelis-Menten equation using Sigma Plot.

T1 sequence (Q53685 other isoform, or with tags, fused parts or gaps P55A/P67T/R82V/R83E/T84P/S132F/A242V): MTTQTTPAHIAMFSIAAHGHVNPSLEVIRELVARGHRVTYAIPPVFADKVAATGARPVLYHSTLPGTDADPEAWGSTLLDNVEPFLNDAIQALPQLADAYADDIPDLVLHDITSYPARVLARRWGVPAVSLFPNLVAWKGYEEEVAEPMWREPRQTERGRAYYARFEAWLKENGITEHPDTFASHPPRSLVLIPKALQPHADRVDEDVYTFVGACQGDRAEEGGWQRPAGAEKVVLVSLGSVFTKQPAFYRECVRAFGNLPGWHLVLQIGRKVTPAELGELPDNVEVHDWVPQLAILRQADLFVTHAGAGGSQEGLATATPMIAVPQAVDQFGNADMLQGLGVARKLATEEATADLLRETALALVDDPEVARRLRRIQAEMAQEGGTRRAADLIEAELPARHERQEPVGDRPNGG

Regarding `Cc1cc(=O)oc2cc(O)ccc12` [4-Me-umb (4), 7-hydroxy-4-methylcoumarin], the kcat (in general, the number of substrate molecules converted per active site and unit of time at saturation) (acceptor 4 varied) worked out at 0.0247 s⁻¹. The “efficiency of glucosylation compared to the WT enzyme” value (kcat/Km, unnatural acceptor 4-methyl-umbelliferone) is given as around 60 fold. Moreover, the Km (as a rule, the substrate concentration at which the rate is half of its maximum) (read-out: apparent Km, named substrate varied, other substrate fixed) turned out to be 140 µM.
